Results on two molecules are retold here after paper PMC6813460, “Enhancing PLP-Binding Capacity of Class-III ω-Transaminase by Single Residue Substitution” (Frontiers in Bioengineering and Biotechnology, 2019).

The target of assay [1] is Pseudomonas fluorescens ω-transaminase (Pseudomonas fluorescens). The assay is described as follows: crystal structure; PfTA crystallised with PLP; sitting drop vapor diffusion at 20°C; 6 mg/mL protein in 50 mM HEPES pH 7.5, 300 mM NaCl, 0.1 mM PLP, 1% glycerol, 20 mM DTT mixed 1:1 with 0.1 M sodium citrate pH 5.6, 12% w/v PEG 6000, 0.1 M lithium sulfate; 2.2 Å; interfaces analysed with the PISA server.

Assay [2] addresses PfTA (Pseudomonas fluorescens). The assay can be described thus: differential scanning fluorimetry (SYPRO Orange), T1/[…] vs PLP, 1-site fit. As to conditions: apo form, 1 mg/mL protein, PLP 1–250 μM, 50 mM phosphate pH 8; cofactor forms internal aldimine (covalent). It is filed as binding.
Assay [3] addresses T1, CvTA (Chromobacterium violaceum, UniProt Q7NWG4).
T1 construct: gene CV_2025; IMAC-purified recombinant from E. coli BL21 (DE3) Star; dimer
T1 sequence (Q7NWG4 1-459): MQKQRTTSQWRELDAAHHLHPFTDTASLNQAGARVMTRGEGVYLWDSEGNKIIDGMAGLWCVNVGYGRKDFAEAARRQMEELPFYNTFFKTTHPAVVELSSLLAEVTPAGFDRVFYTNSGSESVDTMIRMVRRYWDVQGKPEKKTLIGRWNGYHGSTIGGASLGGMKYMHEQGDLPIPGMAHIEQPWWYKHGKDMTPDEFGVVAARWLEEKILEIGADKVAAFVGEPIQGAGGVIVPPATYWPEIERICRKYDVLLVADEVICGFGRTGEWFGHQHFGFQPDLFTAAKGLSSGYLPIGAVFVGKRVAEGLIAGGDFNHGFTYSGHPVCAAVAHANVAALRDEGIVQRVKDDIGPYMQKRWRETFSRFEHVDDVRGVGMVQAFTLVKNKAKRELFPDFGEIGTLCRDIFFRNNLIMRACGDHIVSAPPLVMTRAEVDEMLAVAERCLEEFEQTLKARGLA
The description is as above. It is filed as binding.

The target in assay [4] is T2, HeTA (Halomonas elongata, UniProt E1V913).
T2 construct: gene spuC; IMAC-purified recombinant from E. coli BL21 (DE3) Star; dimer
T2 sequence (E1V913 1-461): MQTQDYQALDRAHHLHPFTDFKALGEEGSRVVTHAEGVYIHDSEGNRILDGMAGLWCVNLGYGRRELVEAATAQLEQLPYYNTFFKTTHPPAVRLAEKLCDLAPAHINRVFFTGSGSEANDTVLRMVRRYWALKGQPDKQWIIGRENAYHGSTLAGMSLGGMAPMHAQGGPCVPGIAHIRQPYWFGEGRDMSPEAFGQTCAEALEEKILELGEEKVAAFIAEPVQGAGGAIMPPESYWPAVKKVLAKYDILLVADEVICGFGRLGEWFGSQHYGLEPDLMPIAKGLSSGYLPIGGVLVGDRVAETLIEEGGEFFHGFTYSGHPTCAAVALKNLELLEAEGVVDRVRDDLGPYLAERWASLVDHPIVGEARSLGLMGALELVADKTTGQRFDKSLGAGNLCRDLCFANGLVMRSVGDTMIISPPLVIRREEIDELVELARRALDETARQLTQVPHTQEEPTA
The description is as above. It counts as binding.

The target of assay [5] is T3, HeTA (Halomonas elongata, UniProt E1V913, N120V).
T3 construct: gene spuC; IMAC-purified recombinant from E. coli BL21 (DE3) Star; dimer
Described as above. It is filed as binding.

Assay [6] addresses T4, CvTA (Chromobacterium violaceum, UniProt Q7NWG4, V124N).
T4 construct: gene CV_2025
The assay can be described thus: biochemical.

T3 sequence (E1V913 entry or part of it N120V): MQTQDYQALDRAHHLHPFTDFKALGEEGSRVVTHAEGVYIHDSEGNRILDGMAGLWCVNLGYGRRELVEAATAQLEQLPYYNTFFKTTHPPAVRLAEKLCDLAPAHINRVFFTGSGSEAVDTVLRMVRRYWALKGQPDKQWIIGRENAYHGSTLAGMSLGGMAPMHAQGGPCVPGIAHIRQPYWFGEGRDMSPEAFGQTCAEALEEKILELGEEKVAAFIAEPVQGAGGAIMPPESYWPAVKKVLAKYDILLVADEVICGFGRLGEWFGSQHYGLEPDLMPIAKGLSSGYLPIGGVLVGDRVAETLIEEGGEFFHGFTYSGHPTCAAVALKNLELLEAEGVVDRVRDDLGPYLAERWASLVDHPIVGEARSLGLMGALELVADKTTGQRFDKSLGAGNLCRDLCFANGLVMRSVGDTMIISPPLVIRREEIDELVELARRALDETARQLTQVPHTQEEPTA

As to “Pseudomonas fluorescens ω-transaminase (enzyme)”, the stoichiometry N in assay [1] was found to be 4.
Take `Cc1ncc(COP(=O)(O)O)c(C=O)c1O` [PLP]: the dissociation constant Kd worked out at 14.8 ± 2.5 µM in assay [2]; 59 ± 15.8 µM in assay [3]; 12.4 ± 3.6 µM in assay [4]; 30.3 ± 4.1 µM in assay [5]; 16.4 ± 5.6 µM in assay [6].
